Test results as given in patent US6821751B2, “Hypoxia responsive transcription enhancer element from yeast” (The Brigham and Women's Hospital, Inc., priority 2001, dated 2004).

Tests used:
[1] = system: S. cerevisiae; type: cell-based; conditions: any of the concentrations tested
Procedure: (§1) Yeast cells containing lacZ fusion plasmids were grown at 30° C. on uracil dropout medium containing dextrose (Treco, et al., In Current Protocols in Molecular Biology, Ausubel, et al., eds., pp. 13.2.1-13.2.12, John Wiley & Sons, New York (1997)). For unsaturated fatty acid repression analysis, yeast were grown in medium supplemented with 1% tergitol as described previously (Choi, et al., J. Biol. Chem. 271:3581-3589 (1996)). Cells were grown in the presence of UFAs for 6 hours prior to the β-galactosidase assays. Plasmid amplifications and bacterial transformations were performed using Escherichia coli strain DH5 (Invitrogene Corp.). Yeast transformations were performed by the method of Elble (BioTechniques 13:18-20 (1992)). Preparative cultures were grown aerobically in a shaker at 200 rpm (Innova 4000 incubator shaker, New Brunswick Scientific. NJ) at 30° C. to mid-logarithmic phase. For experiments assessing yeast under hypoxic conditions, mid-logarithmic phase preparative cultures were used to inoculate special air-tight flasks with inlet and outlet ports to allow for equilibration with the appropriate gas mixtures. […] Growth was monitored by measuring the yeast OD600 at the completion of each experiment.

[2] = system: OLE1 promoter-lacZ fusion; assay: β-galactosidase assay of OLE1 promoter-lacZ fusion reporter (p62::934 and pAM4); type: cell-based, S. cerevisiae
Procedure: (§2) The construction of several of the OLE1 promoter-lacZ fusion deletion series has been described previously (Choi, et al., J. Biol. Chem. 271:3581-3589 (1996)). Construction of pAM6, pAM7, pAM10 and pAM16 vectors containing the OLE1 low oxygen response element (LORE) sequences −347 to −328 relative to the ATG translational start codon with the A of the codon designated as +1) was performed by inserting the synthetic paired oligonucleotides (10-5′ and 10-3′) into the XhoI restriction site of pTBA30, the CYC1 basal promoter-lacZ fusion vector. pAM16 contains one LORE copy in the −347 to −328 forward or (+) orientation 5′ to the basal CYC1 promoter-lacZ fusion. pAM7 has one LORE copy in the −328 to −347 reverse or (+) orientation. pAM6 contains a tandem repeat of the LORE in the (+) orientation. pAM10 was generated by inserting the synthetic paired oligonucleotides (yd-19 and yd-20) into the XhoI restriction site of pTBA30. The LORE in this plasmid has three mutations. Plasmid pAM4 is the p62::934 derivative with three nucleotide substitutions in the LORE region (-C342T, -T341A and -A339G) prepared utilizing three step PCR with oligonucleotides containing site-directed mutations. Two PCR reactions with appropriate pairs of mutant primers (PCR1 : yd-8 and yd-20 and PCR2: yd-19 and lacZ-3′) and Taq DNA polymerase were carried out as recommended by Roche Molecular Biochemicals (IN) in 100 μl reactions, using 1 ng of p62::934 as a template in a PTC-100 thermal cycler for 30 cycles (1 min at 94° C., 1 min at 55° C., 1 min at 72° C.), followed by 7 min at 72° C. The PCR products were purified from a 1.0% agarose gel using a Qiaex DNA extraction kit (Qiagen, Calif.). Then, PCR products 1 and 2 were annealed and amplified as above with primer yd-8 and lacZ-3′. The resulting PCR products were purified as above and digested with restriction enzymes HindIII and SalI. Finally this PCR product was cloned into HindIII and SalI pretreated p62::934 plasmid to generate pAM4. All the constructs were verified by DNA sequencing. The promoter deletion constructs were transformed into wild-type strain RZ53-6 for subsequent β-galactosidase assays.
Yeast cells containing lacZ fusion plasmids were grown at 30° C. on uracil dropout medium containing dextrose (Treco, et al., In Current Protocols in Molecular Biology, Ausubel, et al., eds., pp. 13.2.1-13.2.12, John Wiley & Sons, New York (1997)). For unsaturated fatty acid repression analysis, yeast were grown in medium supplemented with 1% tergitol as described previously (Choi, et al., J. Biol. Chem. 271:3581-3589 (1996)). Cells were grown in the presence of UFAs for 6 hours prior to the β-galactosidase assays. Plasmid amplifications and bacterial transformations were performed using Escherichia coli strain DH5 (Invitrogene Corp.). […]

[3] = system: OLE1 mRNA; assay: Northern blot analysis of OLE1 mRNA; type: cell-based, S. cerevisiae; conditions: for levels of OLE1 mRNA after transition metal in normoxia: increasing concentrations
Procedure: as §1, with “mixtures. Cultures were exposed to a continuous flow of hydrated medical grade nitrogen (BOC Gases, MA), unless otherwise specified, for 6 hours after inoculating the medium via the inlet port. Of note, medical grade nitrogen is contaminated with trace amounts of O2 (less than 1%). The percentage of saturated O2 in each flask was confirmed by using an oxygen monitor (G. C. Industries, Inc.) attached to the outlet port of each culture.” for “mixtures.”
(§3) Total yeast RNA was isolated as described previously (Collart, et al., In Current Protocols in Molecular Biology, Ausubel, et al., pp. 13.12.1-13.12.5, John Wiley & Sons, New York (1997)). Equal amounts (15 μg) of total RNA were analyzed by Northern blots according to standard procedures for separation of RNA using 1% formaldehyde gels (Collart, et al., In Current Protocols in Molecular Biology, Ausubel, et al., eds, pp. 13.12.1-13.12.5, John Wiley & Sons, New York (1997)). […] Northern blots were quantified using a phosphorimager (Molecular Dynamics) and autoradiographs were also prepared on X-OMAT AR film (Kodak, NY).
For the detection of OLE1 mRNA, a radiolabeled DNA probe was made using a 0.5 kb EcoRI fragment from the OLE1 protein coding sequence. […] The purified DNA fragments were labeled to high specific activity with [^32P]dCTP by the random primer extension method using Ready to Go DNA labeling beads (Amersham Pharmaceutical Biotech) reaction kit. […] Specific activity of labeled probes was determined by liquid scintillation counting.

[4] = system: LORE-basal CYC1 promoter-lacZ; assay: microbe, parasite or virus in culture; type: cell-based, S. cerevisiae
Procedure: as §2, with “The promoter deletion constructs were transformed into wild-type strain RZ53-6 for subsequent β-galactosidase assays.” left out

[5] = system: ATF1; assay: Northern blot analysis of ATF1 mRNA; type: cell-based, S. cerevisiae
Procedure: (§4) Yeast cells containing lacZ fusion plasmids were grown at 30° C. on uracil dropout medium containing dextrose (Treco, et al., In Current Protocols in Molecular Biology, Ausubel, et al., eds., pp. 13.2.1-13.2.12, John Wiley & Sons, New York (1997)). For unsaturated fatty acid repression analysis, yeast were grown in medium supplemented with 1% tergitol as described previously (Choi, et al., J. Biol. Chem. 271:3581-3589 (1996)). Cells were grown in the presence of UFAs for 6 hours prior to the β-galactosidase assays. Plasmid amplifications and bacterial transformations were performed using Escherichia coli strain DH5 (Invitrogene Corp.). […] Growth was monitored by measuring the yeast OD600 at the completion of each experiment.
as §3, with “NY). […]” for “NY).”

[6] = system: SUT1; assay: Northern blot analysis of SUT1 expression; type: cell-based, S. cerevisiae
Procedure: as §4
as §3, with “NY). […]” for “NY).”

[7] = system: ANB1; assay: Expression of anaerobic yeast gene ANB1; type: cell-based, S. cerevisiae
[8] = system: TRX2 mRNA; assay: Northern blot analysis of TRX2 mRNA; type: cell-based, S. cerevisiae
Procedure: as §4
as §3, with “NY). […]” for “NY).”

[9] = system: LORE binding factor(s); assay: Electrophoretic mobility shift assay (EMSA) with crude yeast extracts; set-up: species or system S. cerevisiae
Procedure: Haploid yeast (S. cerevisiae, strain RZ53-6 ) were cultured in 1-liter flasks containing 200 ml of YPD (1% yeast extract, 2% peptone, 2% dextrose) either under normoxic or hypoxic conditions, harvested at midlog phase (OD600=0.8), and lysed by vortexing with glass beads according to published protocols (Pfeifer, et al., Cell 49:9-18 (1987)). Following addition of ammonium sulfate to 40% and incubation on a rocker table at 4° C. for 30 minutes, the precipitate was collected by centrifugation at 14,000 rpm in a microfuge at 4° C. for 10 minutes. The pellet was resuspended in storage buffer (20 mM HEPES, pH8.0; 5 mM EDTA; 20% (v/v) glycerol; 1 mM PMSF; 7 mM β-mercaptoethanol) and stored frozen at −80° C. The soluble protein concentration was determined using a Bradford dye binding assay (BioRad, CA).
EMSAs were performed essentially as described by Carey (Carey, Methods Enzymol. 208:103-117 (1991)) utilizing synthetic paired oligonucleotides (e.g., 10-5′ and 10-3′) as a probe or a probe containing the LORE sequence made by PCR using p62::934 as the template with ^32P-labeled oligonucleotides 1-5′ and yd-10 (−397 to −234) as the primers. […] The concentration of each probe was determined on an ethidium bromide stained agarose-mini gel (Maniatis, et al., Molecular Cloning: A Laboratory Manual, Cold Spring Harbor Laboratory Press, Cold Spring Harbor, N.Y. (1982)). […]

Compound: c1cnc2c(c1)ccc1cccnc12 [1,10 Ph, 1,10-phenanthroline]
- cell growth [1]: unaffected
- gene expression after incubation with chelator ([2]; 6 hours of incubation, 2-8 μg/ml): substantially increase
- expression of OLE1 by OLE1 promoter-lacZ reporter ([2]; exposure for six hours): dose dependent increase
- expression of OLE1 by Northern blot ([3]; exposure for six hours): dose dependent increase

Compound: [Cl][Co][Cl] [CoCl2, cobalt chloride]
- increase of reporter gene expression under cobalt-treated conditions ([4]; plasmid pAM6): ~10 fold
- induction of ATF1 by cobalt treatment [5]: induced
- induction of reporter under cobalt-treated conditions in ROX1 deletion strain ([2]; reporter p62::934, strain RZ53-6 Δrox1): 5.1 fold increase
- CoCl2 dependent induction by reporter assay ([2]; reporter pAM4 (mutated LORE)): not affected
- induction of SUT1 expression by cobalt [6]: no significant induction
- levels of OLE1 mRNA after transition metal in normoxia [3]: increased levels
- expression of ANB1 with cobalt [7]: not upregulated
- cobalt induction of TRX2 mRNA [8]: ~2.5 fold

Compound: [Cl][Ni][Cl] [NiCl2, nickel chloride]
- levels of OLE1 mRNA after transition metal in normoxia [3]: increased levels

Compound: CCCCC/C=C\C/C=C\CCCCCCCC(=O)O [linoleic acid]
- IC50 ([4]; Saccharomyces cerevisiae, reporter pAM6 (two copies of LORE in tandem), UFA for 6 hours, read-out: IC50 of inhibition of lacZ reporter plasmid pAM6 expression): ~20 µM
- repression / dose-response inhibition of lacZ reporter pAM6 expression ([4]; normoxia-, hypoxia- and cobalt-induced expression, pAM6): strongly repress
- hypoxia-induced LORE complex formation (B1) ([9]; crude extracts from L.A.-treated yeast): significantly suppressed
- OLE1 mRNA level after unsaturated fatty acid ([3]; Northern blot): dramatically repressed

Compound: #8: paired oligonucleotides -387 to -368 of OLE1 promoter (SEQ ID NO:44/45) (chain 1 AGGTCTCTTCGCATAGTCG; chain 2 CGACTATGCGAAGAGAACCT; chemistry not given here)
- hypoxia- or CoCl2-induced complex formation with end-labeled probe ([9]; crude extracts from hypoxia and cobalt treated yeast): No specific hypoxia- or CoCl2-induced complex formation
